From US12691095B2, “Modulators of TNF-alpha activity” (Forward Therapeutics, Inc., priority 2024, dated 2026)
pIC50: −log10 of the molar value.

molecular target: T1, TNF-α (Homo sapiens, UniProt P01375); assay: TNF-α Induced THP 1 dual Cellular Assay; assay type: cell-based; conditions: THP1 dual cell reporter cells stimulated with TNF-α, 24 hrs, secreted alkaline phosphatase (QUANTI-Blue, 620 nm)
T1 construct: purchased R&D 210-TA-020/CF
Protocol: (§1) Test articles were diluted in DMSO and serially diluted into 384 well assay plate (Corning 3765), at final concentrations ranging from […] to 0.5 nM. THP1 dual cell reporter cells were added at a final density of 10,000 cell per well in assay media [DMEM (Gibco, cat #21063-029), 10% fetal bovine serum (ExcelBio, cat #FND500), 1% Penicillin-Streptomycin (Solarbio, cat #P1400-100]. TNF-α (R&D 210-TA-020/CF) was then added to the assay plate at a final concentration of […]. This plate was then incubated for 24 hrs at 37° C. and 5% CO2. Secreted alkaline phosphatase expression was then measured using QUANTI-Blue™ (Invivogen), according to manufacturer instructions and read on an Envision microplate reader at 620 nm.
(§2) Inhibition data for test compound over a range of concentration was plotted as percentage inhibition of the test compound (100%=maximum inhibition). IC50 values were determined after correcting for background [(sample read-mean of low control)/(mean of high control-mean of low control)] whereby the low control is DMSO without stimulation and high control is DMSO with stimulation. The IC50 is defined as the concentration of test compound which produces 50% inhibition and was quantified using the 4-parameter logistic equation to fit the data.

T1 sequence (P01375 77-233 limits assumed): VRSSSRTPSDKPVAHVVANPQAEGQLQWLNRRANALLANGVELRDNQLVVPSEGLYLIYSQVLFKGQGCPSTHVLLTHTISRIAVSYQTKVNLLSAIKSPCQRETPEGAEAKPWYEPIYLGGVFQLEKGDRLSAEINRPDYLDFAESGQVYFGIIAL

Structure (SMILES)	pIC50
[2H]C([2H])([2H])N1C(=O)c2cc(F)cc(F)c2[C@H]2C[C@@H]1c1nc3ccc(-c4ccc(P(C)(C)=O)c(F)c4)cc3n12 [Example 13, (7R,14R)-11-(4-(dimethylphosphoryl)-3-fluorophenyl)-1,3-difluoro-6-(methyl-d3)-6,7-dihydro-7,14-methanobenzo[f]benzo[4,5]imidazo[1,2-a][1,4]diazocin-5(14H)-one]	≥ 7.00
[2H]C([2H])([2H])N1C(=O)c2cccc(F)c2[C@H]2C[C@@H]1c1nc3ccc(-c4ccc(P(C)(C)=O)c(F)c4F)cc3n12 [Example 14, (7R,14R)-11-(4-(dimethylphosphoryl)-2,3-difluorophenyl)-1-fluoro-6-(methyl-d3)-6,7-dihydro-7,14-methanobenzo[f]benzo[4,5]imidazo[1,2-a][1,4]diazocin-5(14H)-one]	≥ 7.00
[2H]C([2H])([2H])N1C(=O)c2ccc(F)c(F)c2[C@H]2C[C@@H]1c1nc3ccc(-c4ccc(P(C)(C)=O)c(F)c4)cc3n12 [Example 15, (7R,14R)-11-(4-(dimethylphosphoryl)-3-fluorophenyl)-1,2-difluoro-6-(methyl-d3)-6,7-dihydro-7,14-methanobenzo[f]benzo[4,5]imidazo[1,2-a][1,4]diazocin-5(14H)-one]	≥ 7.00
[2H]C([2H])([2H])N1C(=O)c2cccc(F)c2[C@H]2C[C@@H]1c1nc3ccc(-c4ccc(P(C)(C)=O)cc4)cc3n12 [Example 16, (7R,14R)-11-(4-(dimethylphosphoryl)phenyl)-1-fluoro-6-(methyl-d3)-6,7-dihydro-7,14-methanobenzo[f]benzo[4,5]imidazo[1,2-a][1,4]diazocin-5(14H)-one]	≥ 7.00
[2H]C([2H])([2H])N1C(=O)c2cccc(F)c2[C@H]2C[C@@H]1c1nc3ccc(-c4ccc(P(C)(C)=O)cc4F)cc3n12 [Example 17, (7R,14R)-11-(4-(dimethylphosphoryl)-2-fluorophenyl)-1-fluoro-6-(methyl-d3)-6,7-dihydro-7,14-methanobenzo[f]benzo[4,5]imidazo[1,2-a][1,4]diazocin-5(14H)-one]	≥ 7.00
[2H]C([2H])([2H])N1C(=O)c2cccc(Br)c2[C@H]2C[C@@H]1c1nc3ccc(-c4ccc(P(C)(C)=O)c(F)c4)cc3n12 [Example 18, (7R,14R)-1-bromo-11-(4-(dimethylphosphoryl)-3-fluorophenyl)-6-(methyl-d3)-6,7-dihydro-7,14-methanobenzo[f]benzo[4,5]imidazo[1,2-a][1,4]diazocin-5(14H)-one]	≥ 7.00
[2H]C([2H])([2H])N1C(=O)c2cccc(Br)c2[C@H]2C[C@@H]1c1nc3ccc(-c4ccc(P(C)(C)=O)cc4F)cc3n12 [Example 19, (7R,14R)-1-bromo-11-(4-(dimethylphosphoryl)-2-fluorophenyl)-6-(methyl-d3)-6,7-dihydro-7,14-methanobenzo[f]benzo[4,5]imidazo[1,2-a][1,4]diazocin-5(14H)-one]	≥ 7.00
[2H]C([2H])([2H])N1C(=O)c2cccc(F)c2[C@H]2C[C@@H]1c1nc3cc(F)c(-c4ccc(P(C)(C)=O)cc4)cc3n12 [Example 20, (7R,14R)-11-(4-(dimethylphosphoryl)phenyl)-1,10-difluoro-6-(methyl-d3)-6,7-dihydro-7,14-methanobenzo[f]benzo[4,5]imidazo[1,2-a][1,4]diazocin-5(14H)-one]	≥ 7.00
[2H]C([2H])([2H])N1C(=O)c2cccc(F)c2[C@H]2C[C@@H]1c1nc3cc(F)c(-c4ccc(P(C)(C)=O)nc4)cc3n12 [Example 21, (7R,14R)-11-(6-(dimethylphosphoryl)pyridin-3-yl)-1,10-difluoro-6-(methyl-d3)-6,7-dihydro-7,14-methanobenzo[f]benzo[4,5]imidazo[1,2-a][1,4]diazocin-5(14H)-one]	≥ 7.00
[2H]C([2H])([2H])N1C(=O)c2cccc(F)c2[C@H]2C[C@]1(C)c1nc3ccc(-c4ccc(P(C)(C)=O)c(F)c4)cc3n12 [Example 22, (7R,14R)-11-(4-(dimethylphosphoryl)-3-fluorophenyl)-1-fluoro-7-methyl-6-(methyl-d3)-6,7-dihydro-7,14-methanobenzo[f]benzo[4,5]imidazo[1,2-a][1,4]diazocin-5(14H)-one]	≥ 7.00
[2H]C([2H])([2H])N1C(=O)c2cccc(F)c2[C@H]2C[C@@H]1c1nc3cc(F)c(-c4ccc(P(C)(C)=O)c(F)c4)cc3n12 [Example 23, (7R,14R)-11-(4-(dimethylphosphoryl)-3-fluorophenyl)-1,10-difluoro-6-(methyl-d3)-6,7-dihydro-7,14-methanobenzo[f]benzo[4,5]imidazo[1,2-a][1,4]diazocin-5(14H)-one]	≥ 7.00
[2H]C([2H])([2H])N1C(=O)c2cccc(F)c2[C@H]2C[C@@H]1c1nc3ccc(-c4ccc(P(C)(C)=O)c(N)c4)cc3n12 [Example 24, (7R,14R)-11-(3-amino-4-(dimethylphosphoryl)phenyl)-1-fluoro-6-(methyl-d3)-6,7-dihydro-7,14-methanobenzo[f]benzo[4,5]imidazo[1,2-a][1,4]diazocin-5(14H)-one]	≥ 7.00
[2H]C([2H])([2H])N1C(=O)c2cccc(F)c2[C@H]2C[C@@H]1c1nc3ccc(-c4ccc(P(C)(C)=O)c(NC)c4)cc3n12 [Example 25, (7R,14R)-11-(4-(dimethylphosphoryl)-3-(methylamino)phenyl)-1-fluoro-6-(methyl-d3)-6,7-dihydro-7,14-methanobenzo[f]benzo[4,5]imidazo[1,2-a][1,4]diazocin-5(14H)-one]	≥ 7.00

molecular target: T1, TNF-α; assay: TNF-α Induced HEK Blue Cellular Assay; assay type: cell-based; conditions: HEK Blue TNFα reporter cells stimulated with TNF-α, 24 hrs, secreted alkaline phosphatase (QUANTI-Blue, 620 nm)
Protocol: as §1, with “HEK Blue™ TNFα” for “THP1 dual cell”, “QUANTI- Blue™” for “QUANTI-Blue™”
as §2, with “where by” for “whereby”, “4 parameter” for “4-parameter”

Structure (SMILES)	pIC50
[2H]C([2H])([2H])N1C(=O)c2cccc(Cl)c2[C@H]2C[C@@H]1c1nc3ccc(-c4ccc(P(C)(C)=O)c(F)c4)cc3n12 [Example 1, (7R,14R)-1-chloro-11-(4-(dimethylphosphoryl)-3-fluorophenyl)-6-(methyl-d3)-6,7-dihydro-7,14-methanobenzo[f]benzo[4,5]imidazo[1,2-a][1,4]diazocin-5(14H)-one]	≥ 7.00
[2H]C([2H])([2H])N1C(=O)c2cccc(Cl)c2[C@H]2C[C@@H]1c1nc3ccc(-c4ccc(P(C)(C)=O)nc4)cc3n12 [Example 2, (7R,14R)-1-chloro-11-(6-(dimethylphosphoryl)pyridin-3-yl)-6-(methyl-d3)-6,7-dihydro-7,14-methanobenzo[f]benzo[4,5]imidazo[1,2-a][1,4]diazocin-5(14H)-one]	≥ 7.00
[2H]C([2H])([2H])N1C(=O)c2c(C)ccc(Cl)c2[C@H]2C[C@@H]1c1nc3ccc(-c4ccc(P(C)(C)=O)c(F)c4)cc3n12 [Example 3, (7R,14R)-1-chloro-11-(4-(dimethylphosphoryl)-3-fluorophenyl)-4-methyl-6-(methyl-d3)-6,7-dihydro-7,14-methanobenzo[f]benzo[4,5]imidazo[1,2-a][1,4]diazocin-5(14H)-one]	≥ 7.00
CP(C)(=O)c1ncc(-c2ccc3nc4n(c3c2)[C@@H]2C[C@H]4NC(=O)c3cccc(Cl)c32)cn1 [Example 4, (7R,14R)-1-chloro-11-(2-(dimethylphosphoryl)pyrimidin-5-yl)-6,7-dihydro-7,14-methanobenzo[f]benzo[4,5]imidazo[1,2-a][1,4]diazocin-5(14H)-one]	≥ 7.00
CP(C)(=O)c1ccc(-c2ccc3nc4n(c3c2)[C@@H]2C[C@H]4NC(=O)c3cccc(Cl)c32)cn1 [Example 5, (7R,14R)-1-chloro-11-(6-(dimethylphosphoryl)pyridin-3-yl)-6,7-dihydro-7,14-methanobenzo[f]benzo[4,5]imidazo[1,2-a][1,4]diazocin-5(14H)-one]	≥ 7.00
[2H]C([2H])([2H])N1C(=O)c2c(C)ccc(Cl)c2[C@H]2C[C@@H]1c1nc3ccc(-c4ccc(P(C)(C)=O)nc4)cc3n12 [Example 6, (7R,14R)-1-chloro-11-(6-(dimethylphosphoryl)pyridin-3-yl)-4-methyl-6-(methyl-d3)-6,7-dihydro-7,14-methanobenzo[f]benzo[4,5]imidazo[1,2-a][1,4]diazocin-5(14H)-one]	≥ 7.00
[2H]C([2H])([2H])N1C(=O)c2cccc(Cl)c2[C@H]2C[C@@H]1c1nc3ccc(-c4ccc(P(C)(C)=O)cc4)cc3n12 [Example 7, (7R,14R)-1-chloro-11-(4-(dimethylphosphoryl)phenyl)-6-(methyl-d3)-6,7-dihydro-7,14-methanobenzo[f]benzo[4,5]imidazo[1,2-a][1,4]diazocin-5(14H)-one]	≥ 7.00
